# Patent publication EP1718648B1, “TRICYCLIC IMIDAZOPYRIDINES AND INTERMEDIATES FOR THE SYNTHESIS THEREOF” (Nycomed GmbH, priority 2004, dated 2005)
# Tested on: pentagastrin-stimulated acid secretion of the perfused rat stomach
# Experiment: Testing of the secretion-inhibiting action on the perfused rat stomach
# Conditions: Dose 1.0 µmol/kg i.d. (intraduodenal), in vivo; anesthetized CD rat, female; pentagastrin 1 µg/kg i.v. continuous infusion
# From the text: The compounds of the formula 2 according to the invention investigated in the model mentioned below have been provided with letters which correspond to the letters of these compounds in the examples.
# In Table A which follows, the influence of the compounds of the formula 2 according to the invention on the pentagastrin-stimulated acid secretion of the perfused rat stomach after intraduodenal administration in vivo is shown. Table A
# The abdomen of anesthetized rats (CD rat, female, 200-250 g; 1.5 g/kg i.m. urethane) was opened after tracheotomy by a median upper abdominal incision and a PVC catheter was fixed transorally in the esophagus and another via the pylorus such that the ends of the tubes just projected into the gastric lumen. The catheter leading from the pylorus led outward into the right abdominal wall through a side opening.
# After thorough rinsing (about 50-100 ml), warm (37°C) physiological NaCl solution was continuously passed through the stomach (0.5 ml/min, pH 6.8-6.9; Braun-Unita I). The pH (pH meter 632, glass electrode EA 147; φ = 5 mm, Metrohm) and, by titration with a freshly prepared 0.01 N NaOH solution to pH 7 (Dosimat 665 Metrohm), the secreted HCl were determined in the effluent in each case collected at an interval of 15 minutes.
# The gastric secretion was stimulated by continuous infusion of 1 µg/kg (=1.65 ml/h) of i.v. pentagastrin (left femoral vein) about 30 min after the end of the operation (i.e. after determination of 2 preliminary fractions). The substances to be tested were administered intraduodenally in a 2.5 ml/kg liquid volume 60 min after the start of the continuous pentagastrin infusion.
# The body temperature of the animals was kept at a constant 37.8-38°C by infrared irradiation and heat pads (automatic, stepless control by means of a rectal temperature sensor).
row,SMILES,Inhibition of acid secretion (%)
1,"Cc1nc2c3c(c(C(=O)N(C)C)cn2c1C)CC[C@@H](c1ccccc1)N3 [j, (8S)-2,3-Dimethyl-8-phenyl-6,7,8,9-tetrahydro-1,3a,9-triaza-cyclopenta[a]naphthalene-5-carboxylic Acid Dimethylamide]",> 50
2,"Cc1nc2c3c(c(C(N)=O)cn2c1C)CC[C@H](c1ccccc1)N3 [p, (8R)-2,3-Dimethyl-8-phenyl-6,7,8,9-tetrahydro-1,3a,9-triaza-cyclopenta[a]naphthalene-5-carboxylic Acid Amide]",< 50
3,"CNC(=O)c1cn2c(C)c(C)nc2c2c1CC[C@@H](c1ccccc1)N2 [m, (8S)-2,3-Dimethyl-8-phenyl-6,7,8,9-tetrahydro-1,3a,9-triaza-cyclopenta[a]naphthalene-5-carboxylic Acid Methylamide]",> 50
4,"Cc1nc2c3c(c(C(=O)N(C)C)cn2c1C)CCC(c1ccccc1)N3 (stereo not drawn) [e, 2,3-Dimethyl-8-phenyl-6,7,8,9-tetrahydro-1,3a,9-triaza-cyclopenta[a]naphthalene-5-carboxylic Acid Dimethylamide]",> 50
5,"CNC(=O)c1cn2c(C)c(C)nc2c2c1CCC(c1ccccc1)N2 (stereo not drawn) [c, 2,3-Dimethyl-8-phenyl-6,7,8,9-tetrahydro-1,3a,9-triaza-cyclopenta[a]naphthalene-5-carboxylic Acid Methylamide]",> 50
6,"Cc1nc2c3c(c(C(=O)N4CCCC4)cn2c1C)CCC(c1ccccc1)N3 (stereo not drawn) [h, 1-(2,3-Dimethyl-8-phenyl-6,7,8,9-tetrahydro-1,3a,9-triaza-cyclopenta[a]naphthalen-5-yl)-1-pyrrolidin-1-yl-methanone]",> 50
7,"Cc1nc2c3c(c(C(=O)NC4CC4)cn2c1C)CC[C@H](c1ccccc1)N3 [n, (8R)-2,3-Dimethyl-8-phenyl-6,7,8,9-tetrahydro-1,3a,9-triaza-cyclopenta[a]naphthalene-5-carboxylic Acid Cyclopropylamide]",< 50
8,"Cc1nc2c3c(c(C(=O)NC4CC4)cn2c1C)CC[C@@H](c1ccccc1)N3 [o, (8S)-2,3-Dimethyl-8-phenyl-6,7,8,9-tetrahydro-1,3a,9-triaza-cyclopenta[a]naphthalene-5-carboxylic Acid Cyclopropylamide]",> 50
9,"Cc1nc2c3c(c(C(=O)N(C)C)cn2c1C)CC[C@H](c1ccccc1)N3 [k, (8R)-2,3-Dimethyl-8-phenyl-6,7,8,9-tetrahydro-1,3a,9-triaza-cyclopenta[a]naphthalene-5-carboxylic Acid Dimethylamide]",< 50
10,"Cc1nc2c3c(c(C(N)=O)cn2c1C)CC[C@@H](c1ccccc1)N3 [q, (8S)-2,3-Dimethyl-8-phenyl-6,7,8,9-tetrahydro-1,3a,9-triaza-cyclopenta[a]naphthalene-5-carboxylic Acid Amide]",>50
11,"CNC(=O)c1cn2c(C)c(C)nc2c2c1CC[C@H](c1ccccc1)N2 [l, (8R)-2,3-Dimethyl-8-phenyl-6,7,8,9-tetrahydro-1,3a,9-triaza-cyclopenta[a]naphthalene-5-carboxylic Acid Methylamide]",< 50
12,"Cc1nc2c3c(c(C(N)=O)cn2c1C)CCC(c1ccccc1)N3 (stereo not drawn) [f, 2,3-Dimethyl-8-phenyl-6,7,8,9-tetrahydro-1,3a,9-triaza-cyclopenta[a]naphthalene-5-carboxylic Acid Amide]",> 50
